What was measured:
[1] = test system: NCI-60 panel of cancer cell-lines; test: NCI-60 DTP Human Tumor Cell Line Screen at 5 doses (whole panel); type: cell-based; settings: SNB-75, K562, A498, LOX IMV1, HS 578T and MDA-MB-231 among others (Fig. 5)
Method: Compound 2 was screened by the National Cancer Institute (NCI) at 5 doses on the NCI-60 DTP Human Tumor Cell Line Screen.
Compound 2 was further screened against cancer cell lines by the National Cancer Institute (NCI). This screen was performed as per the description provided at http://dtp.nci.nih.gov/branches/btb/ivclsp.html. "The NCI 60 panel cell lines were grown in RPMI 1640 medium supplemented with 5% (v/v) fetal bovine serum and 2 mM L-glutamine at 37° C, 5 % CO2, 95 % air and 100 % relative humidity. Cells were seeded at 5,000 - 40,000 cells/well depending on their doubling time. After 24 hours of incubation, DMSO stock solutions of the compounds (400X) were added at 5 different concentrations (in […] serial dilutions). After 48 h cells were fixed with trichloroacetic acid (10% or 16% final concentration for adherent cells and suspension cells respectively) and incubated for 60 minutes at 4°C. […] The bound stain was solubilized with 10mM trizma base and determined by absorbance measurement on an automated plate reader at a wavelength of 515 nm. The percentage growth inhibition was calculated as followed, being Tz time zero measurements, C control growth measurements and Ti test growth experiments in the present of the drug. […]
Three dose response parameters were calculated for each cell line. […] Total growth inhibition (TGI) is calculated from Ti = Tz. […]

[2] = test system: MDA-MB-231 breast cancer cells; test: Efficacy in a Xenograft Mouse Model; type: in vivo; settings: female NCr Nu/Nu mice, subcutaneous MDA-MB-231, 50 mg/kg oral twice daily, 21 days
Method: The effect of compound 2 on MDA-MB-231 breast cancer cells was examined. The breast cancer cells were implanted subcutaneously in xenograft mouse models and the development of the body weight and the tumor volume were observed over time (21 days). Group 1 is the vehicle control group consisting of 9 animals, whereas group 2 consisted of 9 animals receiving 50 mg/kg of compound 2 twice-daily.
9 week old female NCr Nu/Nu mice (Charles River Laboratories, Inc.) were injected at the flank with 5x10^6 MDA-MB-231 cells. Once tumor volume reached 108-126 mm^3 (as measured by digital caliper) mice were randomized into a treatment and vehicle-control group of 9 animals each. The treatment group received oral doses of 50 mg/kg of compound 2 twice daily for 21 days (with the exception of a single dose on the first day), formulated as a homogeneous suspension in DMSO/1% methylcellulose (5/95, v/v). The control group received the same formulation but excluding compound 2. Tumor volume of all mice was evaluated bi-weekly up to day 19.

[3] = In vivo pharmacokinetics in blood plasma; settings: male CD-1 mice
Method: Evaluation of the in vivo pharmacokinetics of a subset of compounds was performed through analysis of compound concentration in the blood plasma of male CD-1 (ICD) mice (each weighing 20-30 g) over a 24 hour period (at time points of 3, 10, 30, 60, 120, 240, 360 and 1440 minutes) following a single oral (PO) and intravenous (IV, in tail vein) administration of a compound dose corresponding to 5 mg of compound/kg of mouse body weight (PO) and 1 mg of compound/kg of mouse body weight (IV). For IV dosing, each compound was formulated as a clear solution in DMSO/Solutol® HS 15/phosphate-buffered saline, pH 7.4 (PBS) (5/5/90, v/v/v). For PO dosing, compounds were formulated as a homogeneous suspension in DMSO/1% methylcellulose (5/95, v/v).
At the relevant time point, blood samples (300-400 µL) were collected from the mice under general inhalant anaesthesia by cardiac puncture and stored on ice in 0.6 mL polypropylene heparin-lithium-coated tubes. Within 1 hour of collection, each tube was centrifuged at 2500 G for 15 minutes at 4°C and harvested plasma stored at -20°C.
Compound concentration in plasma at each time point was determined following acetonitrile precipitation of each sample followed by HPLC-MS analysis performed in triplicates, i.e., based on the mean of the compound concentration at that time point in blood samples of three mice.
Table 3: In vivo pharmacokinetics (min: minutes)

With `Cc1ccc(O)cc1-n1c(N)c(C(N)=O)c2nc3ccccc3nc21` [Compound 2, 2-Amino-1-(5-hydroxy-2-methylphenyl)-1H-pyrrolo[2,3-b]quinoxaline-3-carboxamide] the “potency (GI50 and/or TGI and/or LC50) relative to select cell-lines” value [1] was “high potency”, the group-median tumor volume [2] was “remarkable group-median tumor volume control” and the “T1/2 (min, IV)” value ([3]; IV 1 mg/kg, plasma) was 1.68 h. The “Bioavailibility (%)” value ([3]; [AUClast(PO)*Dose(IV)] / [AUClast(IV)*Dose(PO)]) was 25%, the Cmax ([3]; mouse, PO 5 mg/kg, plasma) was 240 ng/mL and the half-life ([3]; mouse, PO 5 mg/kg, plasma, read-out: T1/2 (min, PO)) was 1.67 h. For the same compound, the Tmax ([3]; mouse, PO 5 mg/kg, plasma, read-out: Tmax (min, PO) (converted)) was 0.5 h.
